Assays:
Format in all cases: biochemical
[1] = test system: human pancreatic cholesterol esterase; experiment: Inhibition of human pancreatic cholesterol esterase, hydrolysis of cholesteryl 14C-oleate in phosphatidylcholine vesicles; settings: for IC50, inhibition of cholesterol esterase (cholesteryl oleate hydrolysis) / IC50: substrate cholesteryl 14C-oleate, 37° C., 15 min; for IC50: molar values from assumed molecular weights
[2] = target: human 100 kDa cholesterol esterase; experiment: Inhibition of triolein hydrolysis by the human 100 kDa cholesterol esterase; settings: substrate triolein instead of cholesteryl oleate
Description: Alginic acid from Macrocystis pyrifera (kelp) was dissolved in water at a concentration of 1 mg/ml. This stock solution was used to prepare various polysaccharide concentrations down to 10^-5 mg/ml. Human pancreatic cholesterol esterase was purified as described by Bosner et al., Proc. Nat'l. Acad. Sci., 85, 7438 (1988). To measure cholesterol esterase inhibition by alginic acid, 50 μl of cholesterol esterase (10 μg/ml), 75 μl of phosphatidylcholine vesicles containing cholesteryl ^14 C-oleate (1 mM 2,000 CPM/nmole), 25 μl of 100 mM taurocholate, 120 μl of 150 mM Tris, pH 7.5 and 30 μl of test alginic acid solution were incubated at 37° C. for fifteen minutes. The assay was quenched by placing the reaction vessels in a 4° C. ice bath and by adding 0.6 ml of 0.3 N NaOH and 3 ml of benzene/chloroform/methanol (1.0/1.2/0.5). The quenched reactions were vortexed for 30 seconds, centrifuged at 3,000 g for 15 minutes and 1 ml of the upper aqueous phase was added to 7 ml of Aquasol-2 (DuPont) with 0.025 ml of 6 N HCl. These mixtures were vortexed for one minute and counted for ^14 C-oleate. The counts were compared to a sample which contained cholesterol esterase but no alginic acid to determine the percentage of inhibition.
(The same assay procedure was used as described in Part I, only triolein was used instead of cholesteryl oleate.) As shown in the table below, the IC50 for inhibition of triolein hydrolysis is nearly the same as that for cholesteryl oleate hydrolysis.

cholesterol esterase = experiment: Baking stability: cholesterol esterase inhibition by water extract of a baked corn muffin containing the inhibitor; settings: baked fifteen minutes in a 400° oven
Description: The sulfated polysaccharides described here retain their inhibitory activity for prolonged periods at elevated temperatures. […] For example, 109 mg of cellulose sulfate were added to 198 gm (7 oz) of corn muffin mix (Gold Medal®) and the solid ingredients were thoroughly mixed together. After the addition of one egg and one-third cup milk, the muffin mix was stirred fifteen times. The mixture was poured into nine muffin tins and baked for fifteen minutes in a 400° oven. The next day one muffin was broken up, added to 100 ml of water and allowed to stand for fifteen minutes. The mixture was centrifuged and the clear supernatant was assayed for the presence of cholesterol esterase inhibition. The IC50 of this solution was achieved when this solution was diluted 10^3 -10^4 times.

| Substance | Enhancement Factor ([1]; IC50 of alginic acid relative to IC50 of the sulfated derivative) | IC50, inhibition of cholesterol esterase (cholesteryl oleate hydrolysis) [1] | IC50 [1] | IC50 [2] | Stability of inhibitory activity under baking conditions / elevated temperatures (cholesterol esterase) | Inhibition of cholesterol esterase (in words) [1] |
| --- | --- | --- | --- | --- | --- | --- |
| Alginic acid | 1.0 | 4 µg/mL | 20 nM | 42 nM | – | – |
| Cellulose Sulfate | – | – | 0.02 nM | 0.06 nM | stable under baking conditions | – |
| Chitin Sulfate | – | – | 0.06 nM | 0.14 nM | – | – |
| Chitosan Sulfate | – | 0.015 µg/mL | 0.03 nM | 0.16 nM | – | – |
| agar [native (unsulfated) agar] | – | – | 30 nM | – | – | – |
| pectin [native, unsulfated pectin] | – | – | – | – | – | does not inhibit cholesterol esterase |

— patent US5063210A, “Use of sulfated polysaccharides to decrease cholesterol and fatty acid absorption” (priority 1989, dated 1991)
